Reference: US4396607A, “Muramyl peptide derivatives and pharmaceutical compositions” (priority 1978, dated 1983)

Key:
Ovalbumin [1] = test: Adjuvant character in emulsion (delayed hypersensitivity and antibodies); format: in vivo, Hartley guinea pigs; conditions: guinea pigs, 50 μg in AlF emulsion with 1 mg ovalbumin; for Log2 of the hemagglutinating titer: serum day 21; for HSR (diameter of the delayed hypersensitivity reaction): skin test day 18, read 48 hours later
Description: The tests were carried out on batches of 6 male Hartley guinea pigs of 350 g. The administration was done by intradermal injection into the plantar pad of each of the rear paws. Ovalbumin (constituting the antigen) in the amount of 1 mg is prepared in 0.1 ml of an emulsion of saline isotonic solution, in any oily phase constituted either by the Freund imcomplete adjuvant (FIA), or by the complete adjuvant (FCA) formed by the FIA to which is added 0.1 mg of whole Mycobacterium smegmatis cells. The compound according to the invention was administered in the amount of 0.05 mg added in the emulsion containing the FIA.
Eighteen days after this immunization, possible delayed hypersensitivity reactions to the antigen were sought by injecting by the intradermal route 0.01 mg of ovalbumin in the side of the animals, and 48 hours later, the reaction of the point of injection was observed. The diameter in millimeters of the reaction thus caused was measured.
Twenty-one days after the injection, the animals were bled. […]

Klebsiella pneumoniae = test: Anti-infectious activity with respect to Klebsiella; format: in vivo; conditions: mice, i.v. treatment 24h before 2 × 10^4 bacteria i.m.
Description: The survival of groups of inoculated mice under the above conditions and treated by means of the products according to the invention was followed.
The infecting dose was 2.10^4 Klebsiella; it was administered by the intramuscular route.
The administration of the tested product was carried out by the intravenous route in 0.2 ml of apyrogenic physiological solution, the controls receiving the solution alone. It was carried out 24 hours before the inoculation.
The percentage protection indicated is a difference of the percentages of survivors of the treated group with respect to the control group.

[2] = Toxicity (lethal dose 50) by parenteral administration in the adrenalectomised mouse; format: in vivo, mice
Description: The toxicity of the products according to the invention was investigated by parenteral administration in mice. It was observed that the toxic doses were of an order of magnitude very much higher than that of the doses at which these products manifest their activity. Thus the lethal dose 50 of the products according to the invention tested was higher than 5 mg/kg of animal in the adrenalectomised mouse, whose sensitivity to endotoxins is well-known.

BSA = test: Liposome forms: adjuvant character in mice, BSA as antigen; format: in vivo; conditions: 10 μg
Description: (§1) Groups of 8 Swiss mice aged two months received, by sub-cutaneous injection (SC), 0.5 mg of antigen constituted by bovine serum albumin (BSA) with 0.1 mg or without the tested substance in an isotonic saline solution. This high dose of antigen, because it is situated at the limit of the paralyzing dose with respect to the immunitary response, results, for this reason, in a weak or zero response to the antigen only in the controls: It constitutes therefore a severe criterien to establish the activity of an adjuvant substance. Thirty days later, the mice received, by the same administrative route, a booster containing 0.1 mg of the same antigen.
(§2) The antibody level was determined, six days after the booster, by passive hemagglutination using sheep's red blood corpuscles treated with formalin and covered with the antigen studied according to the method described by A. A. HIRATA and M. W. BRANDISS (J. Immunol., 100, 641-648, 1968).
The series of tests was carried out on mice under the same conditions as indicated in (3)(a), using BSA as antigen.

ovalbumin [3] = test: Liposome forms: adjuvant character in guinea pigs, ovalbumin in aqueous solution; format: in vivo, Hartley male guinea pigs; conditions: ovalbumin 1 mg in foot pad
Description: The antigen was ovalbumin injected in aqueous solution in the foot pad of Hartley male guinea pigs at a volume of 0.1 ml in each rear paw, at the dose of 1 mg per guinea pig. The adjuvant preparations were injected simultaneously at the indicated doses. After three weeks, the animals received by the dermal route, in a volume of 0.1 ml, 0.025 mg of antigen. The diameter of the cutaneous reactions was measured after 48 hours. The animals were bled and the titers measured.

[4] = Liposome forms: toxicity in the adrenalectomized mouse; format: in vivo; conditions: groups of six mice, 100 μg
Description: Pharmacological tests similar to the preceding ones were reproduced with MDP, MDP-L-Ala-eicosyl-ester and MDP-L-Ala-glyceryl-mycolate comparing the effects of administration in liposome form with those obtained for products in solution and with liposomes without muramyl-peptide.
The liposomes were prepared in the manner described above.
The products, the doses administered and their effect on the mortality of groups of six mice are indicated below.

Listeria monocytogenes = test: Liposome forms: anti-Listeria activity; format: in vivo; conditions: mice, 1.10^3 Listeria i.v.
Description: The tests were carried out under the conditions of (5), using a dose of Listeria monocytogen, known to cause typically a cellular type infection.
The treatment of the mice and the inoculation were carried out by the intravenous route. The products were injected in the liposome form at the indicated doses. The controls only received isotonic solution.
The dose of Listeria administered was, in all the tests, 1.10^3 cells.
The tests whose results are given below were carried out by varying the interval of time separating the treatment of inoculation from the Listeria monocytogenes (either 1, either 4, or 8 days). The number of surviving mice at the 5th and at the 10th day following inoculation was followed, and the percentage protection determined as for the preceding tests.

[5] = test system: Limulus amoebocyte lysate; test: Limulus test (endotoxic type activity); conditions: gel formation after 20 minutes at 37° C.
Description: For this purpose, 0.1 ml of the Limulus amoebocyte lysate preparation (marketed by the MALLINCKRODT Company, at St. LOUIS, U.S.A.) was mixed with an equal volume of the tested product at various concentrations in solution in apyrogenic distilled water. The vessels used were also made apyrogenic by dry heating in the oven, at 180° C., for 2 hours.
After incubating the mixture for 20 minutes at 37° C. in tubes, the formation of gel characteristics of the presence of endotoxin was estimated.

Klebsiella = test: Liposome forms: anti-Klebsiella activity (intravenous infection); format: in vivo; conditions: mice, i.v. treatment at D - 1, 1.5.10^3 Klebsiella i.v.
Description: Under the previously described conditions, with the exception of the infection produced by the intravenous injection of 1.5.10^3 Klebsiella, the tests are renewed to determine the anti-infectious action. The administrations in the form of solution and of liposome were prepared.

[6] = test system: bovine serum albumin (BSA); test: Adjuvant character in the aqueous phase (antibody titer by passive hemagglutination); format: in vivo, Swiss mice; conditions: mice, 0.5 mg BSA with 0.1 mg tested substance SC in isotonic saline, booster day 30, titer at the 36th day
Description: as §1, §2
The antibody titer, represented by the maximum serum dilution agglutinating a given amount of sheep corpuscles, reaches a maximum at the 36th day and is established in the following manner: […]

ovalbumin [7] = test: Liposome forms: adjuvant character in Wistar rats, ovalbumin; format: in vivo; conditions: ovalbumin 0.5 mg s.c., 200 μg
Description: The antigen was ovalbumin injected by the subcutaneous route in male Wistar rats in a volume of 0.5 ml at the dose of 0.5 mg. The adjuvant preparations were injected simultaneously, at the dose indicated. At day 20, the animals received a booster of 0.5 mg of antigen alone by the same route. The serums were drawn and tested under the same conditions as in the mouse with the appropriate antigen.

[8] = i.v. treatment at D - 1, dose 100 μg
[9] = i.v. treatment at D - 4, dose 100 μg
[10] = i.v. treatment at D - 8, dose 100 μg

Molecule | Log2 of the hemagglutinating titer (Ovalbumin [1]) | HSR (diameter of the delayed hypersensitivity reaction) (Ovalbumin [1]) | % of protection (Klebsiella pneumoniae; dose per mouse 10) | Number of survivors at day 3 (Klebsiella pneumoniae; dose per mouse 10) | Number of survivors at day 5 (Klebsiella pneumoniae; dose per mouse 10) | Number of survivors at day 8 (Klebsiella pneumoniae; dose per mouse 10) | % of protection (Klebsiella pneumoniae; dose per mouse 100) | Number of survivors at day 3 (Klebsiella pneumoniae; dose per mouse 100) | Number of survivors at day 5 (Klebsiella pneumoniae; dose per mouse 100) | Number of survivors at day 8 (Klebsiella pneumoniae; dose per mouse 100) | lethal dose 50 [2] | Log2 of the hemagglutinating titer (BSA) | Number of dead mice [4] | % of protection (Listeria monocytogenes; [8]) | Number of survivors D + 5 (Listeria monocytogenes; [8]) | Number of survivors D + 10 (Listeria monocytogenes; [8]) | % of protection (Listeria monocytogenes; [9]) | Number of survivors D + 5 (Listeria monocytogenes; [9]) | Number of survivors D + 10 (Listeria monocytogenes; [9]) | % of protection (Listeria monocytogenes; [10]) | also measured
CCCCCCCCCCCCCCCCCCCCOC(=O)[C@H](C)NC(=O)CC[C@@H](NC(=O)[C@H](C)NC(=O)[C@@H](C)O[C@H]1[C@H](O)[C@@H](CO)OC(O)[C@@H]1NC(C)=O)C(N)=O (stereo partly drawn) [MDP--L--Ala--eicosyl--ester, eicosyl ester of N-acetyl-muramyl-L-alanyl-D-isoglutamine-L-alanine] | 11.25 ± 1.14 | 6 ± 4 millimeters | 46% | 18 | 14 | 14 | 70% | 23 | 23 | 20 | higher than 5 mg/kg | 3.64 ± 1.15 | 0/6 | 0% | 3 | 0 | 0% | 4 | 4 | 0% | Log2 of the hemagglutinating titer (ovalbumin [3]; 200 μg): 7.33 ± 1.51; HSR (diameter of the cutaneous reactions; in parentheses number of animals showing the reaction) (ovalbumin [3]; 200 μg, read after 48 hours): 0; Number of survivors D + 5 (Listeria monocytogenes; [10]): 2; Number of survivors D + 10 (Listeria monocytogenes; [10]): 2; Limulus test result (concentration of the tested product) [5]: 10 µg/mL; % of protection (Klebsiella; 1 μg): 25%; Number of survivors at D + 3 (Klebsiella; 1 μg): 4; Number of survivors at D + 5 (Klebsiella; 1 μg): 4; Number of survivors at D + 8 (Klebsiella; 1 μg): 4; % of protection (Klebsiella; 10 μg): 31%; Number of survivors at D + 3 (Klebsiella; 10 μg): 13; Number of survivors at D + 5 (Klebsiella; 10 μg): 9; Number of survivors at D + 8 (Klebsiella; 10 μg): 9; % of protection (Klebsiella; 100 μg): 63%; Number of survivors at D + 3 (Klebsiella; 100 μg): 14; Number of survivors at D + 5 (Klebsiella; 100 μg): 14; Number of survivors at D + 8 (Klebsiella; 100 μg): 14; Log2 hemagglutinating titer [6]: 7.11 ± 2.03
N-acetyl-muramyl-L-alanyl-D-isoglutaminyl-L-alanylglyceryl-mycolate [MDP--L--Ala--glyceryl--mycolate] | 12.77 ± 0.83 | 21± 3 millimeters | 33% | 5 | 4 | 4 | 79% | 23 | 23 | 23 | higher than 5 mg/kg | 2.07 ± 1.13 | 0/6 | 0% | 3 | 2 | 0% | 1 | 0 | 0% | HSR (diameter of the cutaneous reactions) (ovalbumin [3]; dose not given): 0; Log2 of the hemagglutinating titer (ovalbumin [3]; dose not given): 8.64 ± 1.83; Number of survivors D + 5 (Listeria monocytogenes; [10]): 1; Number of survivors D + 10 (Listeria monocytogenes; [10]): 0; Log2 of the hemagglutinating titer (ovalbumin [7]): 7.64 ± 1.90; % of protection (Klebsiella; 1 μg): 0%; Number of survivors at D + 3 (Klebsiella; 1 μg): 2; Number of survivors at D + 5 (Klebsiella; 1 μg): 2; Number of survivors at D + 8 (Klebsiella; 1 μg): 2; % of protection (Klebsiella; 10 μg): 25%; Number of survivors at D + 3 (Klebsiella; 10 μg): 9; Number of survivors at D + 5 (Klebsiella; 10 μg): 8; Number of survivors at D + 8 (Klebsiella; 10 μg): 8; % of protection (Klebsiella; 100 μg): 63%; Number of survivors at D + 3 (Klebsiella; 100 μg): 8; Number of survivors at D + 5 (Klebsiella; 100 μg): 7; Number of survivors at D + 8 (Klebsiella; 100 μg): 7; Log2 hemagglutinating titer [6]: 7.47 ± 1.17
